# Measured values taken from US10100058B2, “Fused heterocyclic compounds as CaM kinase inhibitors” (Gilead Sciences, Inc., priority 2016, dated 2018).
# Target: recombinant CaMKIIδ (Homo sapiens (Human), UniProt Q13557)
# Experiment: CaMKIIδ biochemical assay (HTRF)
# Conditions: 10 pM CaMKIIδ, 110 nM calmodulin, 12 μM ATP, 1 hour; read-out: CAMKIID-HTRF-384V2 (IC50 - nM)
# Method: CaMKIIδ Biochemical Assay
# The biochemical activity of recombinant CaMKIIδ was measured by monitoring the phosphorylation of a target peptide using Homogenous Time Resolved Fluorescence (HTRF) technology from CisBio Bioassays.
row,IC50 [nM],SMILES
1,0.31,"CC[C@@H](CNC(=O)c1cc(-c2cnn3ccc(-c4cccs4)nc23)nc(N2CC[C@H]2C(=O)NC)c1)N(CC)CC (single isomer, unassigned) [Example 356A]"
2,3.04,"CC[C@H](CNC(=O)c1cc(-c2cnn3ccc(-c4cccs4)nc23)nc(N2CC[C@H]2C(=O)NC)c1)N(CC)CC (single isomer, unassigned) [Example 356B]"
3,0.18,"CCN(CC)[C@@H](C)CNC(=O)c1cc(-c2cnn3ccc(-c4cccs4)nc23)nc(N2CCC(C#N)C2)c1 (stereo in doubt) [Example 313, 2-((S)-3-cyanopyrrolidin-1-yl)-N—((S)-2-(diethylamino)propyl)-6-(5-(thiophen-2-yl)pyrazolo[1,5-a]pyrimidin-3-yl)isonicotinamide]"
4,6.05,"O=C(NC[C@@H]1CCN1)c1ccnc(-c2cnn3ccc(-c4cccs4)nc23)c1 [Example 7, (S)—N-(azetidin-2-ylmethyl)-2-(5-(thiophen-2-yl)pyrazolo[1,5-a]pyrimidin-3-yl)isonicotinamide]"
5,10,"O=C(NC[C@H]1CCN1)c1ccnc(-c2cnn3ccc(-c4cccs4)nc23)c1 [Example 8, (R)—N-(azetidin-2-ylmethyl)-2-(5-(thiophen-2-yl)pyrazolo[1,5-a]pyrimidin-3-yl)isonicotinamide]"
6,26,"CN(C)CCNC(=O)c1ccnc(-c2cnn3ccc(-c4cccs4)nc23)c1 [Example 9, N-(2-(dimethylamino)ethyl)-2-(5-(thiophen-2-yl)pyrazolo[1,5-a]pyrimidin-3-yl)isonicotinamide]"
7,8.34,"CCN(CC(F)F)[C@@H](C)CNC(=O)c1ccnc(-c2cnn3ccc(-c4cccs4)nc23)c1 [Example 15, (S)—N-(2-((2,2-difluoroethyl)(ethyl)amino)propyl)-2-(5-(thiophen-2-yl)pyrazolo[1,5-a]pyrimidin-3-yl)isonicotinamide]"
8,4.97,"CCN[C@@H](C)CNC(=O)c1ccnc(-c2cnn3ccc(-c4cccs4)nc23)c1 [Example 20, (S)—N-(2-(ethylamino)propyl)-2-(5-(thiophen-2-yl)pyrazolo[1,5-a]pyrimidin-3-yl)isonicotinamide]"
9,27.8,"C[C@@H](CNC(=O)c1ccnc(-c2cnn3ccc(-c4cccs4)nc23)c1)NCCO [Example 21, (S)—N-(2-((2-hydroxyethyl)amino)propyl)-2-(5-(thiophen-2-yl)pyrazolo[1,5-a]pyrimidin-3-yl)isonicotinamide]"
10,13.9,"C[C@H](N)CNC(=O)c1ccnc(-c2cnn3ccc(-c4cccs4)nc23)c1 [Example 22, (S)—N-(2-aminopropyl)-2-(5-(thiophen-2-yl)pyrazolo[1,5-a]pyrimidin-3-yl)isonicotinamide]"
11,14.6,"CCCN[C@@H](C)CNC(=O)c1ccnc(-c2cnn3ccc(-c4cccs4)nc23)c1 [Example 23, (S)—N-(2-(propylamino)propyl)-2-(5-(thiophen-2-yl)pyrazolo[1,5-a]pyrimidin-3-yl)isonicotinamide]"
12,7.88,"C[C@@H](CNC(=O)c1ccnc(-c2cnn3ccc(-c4cccs4)nc23)c1)NCCF [Example 24, (S)—N-(2-((2-fluoroethyl)amino)propyl)-2-(5-(thiophen-2-yl)pyrazolo[1,5-a]pyrimidin-3-yl)isonicotinamide]"
13,10.7,"C[C@@H](CNC(=O)c1ccnc(-c2cnn3ccc(-c4cccs4)nc23)c1)NCC1CC1 [Example 26, (S)—N-(2-((cyclopropylmethyl)amino)propyl)-2-(5-(thiophen-2-yl)pyrazolo[1,5-a]pyrimidin-3-yl)isonicotinamide]"
14,18.4,"C[C@@H](CNC(=O)c1ccnc(-c2cnn3ccc(-c4cccs4)nc23)c1)NCC(F)F [Example 27, (S)—N-(2-((2,2-difluoroethyl)amino)propyl)-2-(5-(thiophen-2-yl)pyrazolo[1,5-a]pyrimidin-3-yl)isonicotinamide]"
15,7.72,"CCN[C@H](CC)CNC(=O)c1ccnc(-c2cnn3ccc(-c4cccs4)nc23)c1 [Example 29, (R)—N-(2-(ethylamino)butyl)-2-(5-(thiophen-2-yl)pyrazolo[1,5-a]pyrimidin-3-yl)isonicotinamide]"
16,3.67,"CCN[C@@H](CC)CNC(=O)c1ccnc(-c2cnn3ccc(-c4cccs4)nc23)c1 [Example 30, (S)—N-(2-(ethylamino)butyl)-2-(5-(thiophen-2-yl)pyrazolo[1,5-a]pyrimidin-3-yl)isonicotinamide]"
17,18,"CC(C)N[C@@H](C)CNC(=O)c1ccnc(-c2cnn3ccc(-c4cccs4)nc23)c1 [Example 32, (S)—N-(2-(isopropylamino)propyl)-2-(5-(thiophen-2-yl)pyrazolo[1,5-a]pyrimidin-3-yl)isonicotinamide]"
18,8.44,"CCN[C@H](C)CNC(=O)c1ccnc(-c2cnn3ccc(-c4cccs4)nc23)c1 [Example 33, (R)—N-(2-(ethylamino)propyl)-2-(5-(thiophen-2-yl)pyrazolo[1,5-a]pyrimidin-3-yl)isonicotinamide]"
19,95.5,"CN1CCC[C@H]1CNC(=O)c1ccnc(-c2cnn3ccc(-c4cccs4)nc23)c1 [Example 35, (S)—N-((1-methylpyrrolidin-2-yl)methyl)-2-(5-(thiophen-2-yl)pyrazolo[1,5-a]pyrimidin-3-yl)isonicotinamide]"

# Continued, compound first:
row,SMILES,IC50 [nM]
1,"NCC1CC(F)(F)CN1C(=O)c1ccnc(-c2cnn3ccc(-c4cccs4)nc23)c1 (stereo in doubt) [Example 78, (S)-(2-(aminomethyl)-4,4-difluoropyrrolidin-1-yl)(2-(5-(thiophen-2-yl)pyrazolo[1,5-a]pyrimidin-3-yl)pyridin-4-yl)methanone]",9.44
2,"COC1CN(c2cc(C(=O)N3C4CC[C@@H]3CCNC4)cc(-c3cnn4ccc(-c5ccccc5)nc34)n2)C1 (stereo in doubt) [Example 330, (-3,9-diazabicyclo[4.2.1]nonan-9-yl)(2-(3-methoxyazetidin-1-yl)-6-(5-phenylpyrazolo[1,5-a]pyrimidin-3-yl)pyridin-4-yl)methanone]",44.6
3,"O=C(NCC12CCCN1CCC2)c1ccnc(-c2cnn3ccc(-c4cccs4)nc23)c1 [Example 3, N-((hexahydro-1H-pyrrolizin-7a-yl)methyl)-2-(5-(thiophen-2-yl)pyrazolo[1,5-a]pyrimidin-3-yl)isonicotinamide]",5.55
4,"O=C(NC[C@@H]1C[C@H](F)CN1)c1ccnc(-c2cnn3ccc(-c4cccs4)nc23)c1 [Example 5, N-(((2S,4S)-4-fluoropyrrolidin-2-yl)methyl)-2-(5-(thiophen-2-yl)pyrazolo[1,5-a]pyrimidin-3-yl)isonicotinamide]",12.7
5,"CCC[C@@]1(CNC(=O)c2ccnc(-c3cnn4ccc(-c5cccs5)nc34)c2)CCCN1 [Example 10, (S)—N-((2-propylpyrrolidin-2-yl)methyl)-2-(5-(thiophen-2-yl)pyrazolo[1,5-a]pyrimidin-3-yl)isonicotinamide]",9.8
6,"CC[C@@]1(CNC(=O)c2ccnc(-c3cnn4ccc(-c5cccs5)nc34)c2)CCCN1 [Example 11, (S)—N-((2-ethylpyrrolidin-2-yl)methyl)-2-(5-(thiophen-2-yl)pyrazolo[1,5-a]pyrimidin-3-yl)isonicotinamide]",10.7
7,"C[C@@]1(CNC(=O)c2ccnc(-c3cnn4ccc(-c5cccs5)nc34)c2)CCCN1 [Example 12, (S)—N-((2-methylpyrrolidin-2-yl)methyl)-2-(5-(thiophen-2-yl)pyrazolo[1,5-a]pyrimidin-3-yl)isonicotinamide]",14.9
8,"C[C@@H](NC(=O)c1ccnc(-c2cnn3ccc(-c4cccs4)nc23)c1)[C@@H]1CCCN1 [Example 13, N—((R)-1-((S)-pyrrolidin-2-yl)ethyl)-2-(5-(thiophen-2-yl)pyrazolo[1,5-a]pyrimidin-3-yl)isonicotinamide]",153
9,"C[C@@H](CNC(=O)c1ccnc(-c2cnn3ccc(-c4cccs4)nc23)c1)NCC(F)F [Example 14, (S)—N-(2-((2,2-difluoroethyl)amino)propyl)-2-(5-(thiophen-2-yl)pyrazolo[1,5-a]pyrimidin-3-yl)isonicotinamide]",23.8
10,"O=C(NCC1CCCCCN1)c1ccnc(-c2cnn3ccc(-c4cccs4)nc23)c1 (centres unmarked) [Example 16, N-(azepan-2-ylmethyl)-2-(5-(thiophen-2-yl)pyrazolo[1,5-a]pyrimidin-3-yl)isonicotinamide]",60
11,"CC(C)C[C@@]1(CNC(=O)c2ccnc(-c3cnn4ccc(-c5cccs5)nc34)c2)CCCN1 [Example 17, (R)—N-((2-isobutylpyrrolidin-2-yl)methyl)-2-(5-(thiophen-2-yl)pyrazolo[1,5-a]pyrimidin-3-yl)isonicotinamide]",7.47
12,"O=C(NC[C@]1(CC2CC2)CCCN1)c1ccnc(-c2cnn3ccc(-c4cccs4)nc23)c1 [Example 18, (R)—N-((2-(cyclopropylmethyl)pyrrolidin-2-yl)methyl)-2-(5-(thiophen-2-yl)pyrazolo[1,5-a]pyrimidin-3-yl)isonicotinamide]",6.51
13,"O=C(NCC1CCCCN1)c1ccnc(-c2cnn3ccc(-c4cccs4)nc23)c1 (centres unmarked) [Example 19, N-(piperidin-2-ylmethyl)-2-(5-(thiophen-2-yl)pyrazolo[1,5-a]pyrimidin-3-yl)isonicotinamide]",89.3
14,"C[C@@H](CNC(=O)c1ccnc(-c2cnn3ccc(-c4cccs4)nc23)c1)NCC(F)(F)F [Example 28, (S)-2-(5-(thiophen-2-yl)pyrazolo[1,5-a]pyrimidin-3-yl)-N-(2-((2,2,2-trifluoroethyl)amino)propyl)isonicotinamide]",53.4
15,"CCC(CNC(=O)c1ccnc(-c2cnn3ccc(-c4cccs4)nc23)c1)NC(C)C (centres unmarked) [Example 31, N-(2-(isopropylamino)butyl)-2-(5-(thiophen-2-yl)pyrazolo[1,5-a]pyrimidin-3-yl)isonicotinamide]",12.1
16,"O=C(NC[C@@H]1CCCN1)c1ccnc(-c2cnn3ccc(-c4cccs4)nc23)c1 [Example 34, (S)—N-(pyrrolidin-2-ylmethyl)-2-(5-(thiophen-2-yl)pyrazolo[1,5-a]pyrimidin-3-yl)isonicotinamide]",12.4
